Measured values: patent publication US6380202B1, “Fungicidal fluoro-substituted 7-heterocyclyl-triazolopyrimidines” (BASF Aktiengesellschaft, priority 1998, dated 2002)
≈ marks a conversion by molar mass, not a printed value. Where “and” joins values, the source holds several entries; their conditions need not be identical. Equal values may be shown once. Read-outs that look alike come from different tables or passages of the source.

Tests used:
[1] = tested on: Alternaria solani; format: cell-based
[2] = tested on: Botrytis cinerea; format: cell-based
[3] = tested on: Leptosphaeria nodorum; experiment: MIC serial dilution test, Leptosphaeria nodorum (LEPTNO); format: cell-based
[4] = tested on: Phytophthora infestans; format: cell-based; conditions: total inhibition of mycelial growth; V8 nutrient solution; 6-12 days incubation, 18-25° C.; visual inspection
[5] = tested on: Magnaporthe grisea f. sp. oryzae; format: cell-based; conditions: total inhibition of mycelial growth; V8 nutrient solution; 6-12 days incubation, 18-25° C.; visual inspection
[6] = tested on: Pyrenophora teres; format: cell-based
[7] = tested on: Rhizoctonia solani; format: cell-based
[8] = tested on: Erysiphe graminis DC. f.sp. tritici E. Marchal; conditions: in vivo
[9] = tested on: Leptosphaeria nodorum; experiment: Greenhouse test, Wheat Septoria nodorum (WSN); conditions: Foliar application, 2 day residual (inoculation 2 days after application)
[10] = tested on: Puccinia recondita; conditions: in vivo
[11] = […], V8 nutrient solution, 6-12 days incubation, 18-25° C., visual inspection
[12] = total inhibition of mycelial growth, V8 nutrient solution, 6-12 days incubation, 18-25° C., visual inspection

Row | SMILES | MIC (Minimum Inhibitory Concentration) ALTESO [1, 11] [µg/mL] | MIC (Minimum Inhibitory Concentration) BOTRCI [2, 11] [µg/mL] | MIC (Minimum Inhibitory Concentration) LEPTNO [3, 12] [µg/mL] | MIC (Minimum Inhibitory Concentration) PHYTIN [4] [µg/mL] | MIC (Minimum Inhibitory Concentration) PYRIOR [5] [µg/mL] | MIC (Minimum Inhibitory Concentration) PYRNTE [6] [µg/mL] | MIC (Minimum Inhibitory Concentration) RHIZSO [7, 11] [µg/mL] | Disease control (% efficacy) WPM 2 da R [8] | Disease control (% efficacy) WSN 2 da R ([9]; 25 ppm) [%] | Disease control (% efficacy) WSN 2 da R ([9]; 100 ppm) [%] | MIC (Minimum Inhibitory Concentration) PYRNTE [6, 11] [µg/mL] | Disease control (% efficacy) WLR 2 da R [10] [%] | MIC (Minimum Inhibitory Concentration) ALTESO [1] [µg/mL] | Disease control (% efficacy) WLR 2 da C [10] | MIC (Minimum Inhibitory Concentration) BOTRCI [2] [µg/mL] | MIC (Minimum Inhibitory Concentration) LEPTNO [3] [µg/mL] | MIC (Minimum Inhibitory Concentration) RHIZSO [7] [µg/mL]
1 | Fc1cc(F)c(-c2c(Cl)nc3ncnn3c2N2CCC(F)CC2)c(F)c1 [Example 1, 5-chloro-7-(4-fluoropiperid-1-yl)-6-(2,4,6-trifluorophenyl)-1,2,4-triazolo[1,5a]pyrimidine] | 200 (≈ 0.518 mM) | 3130 (≈ 8.11 mM) | 12500 (≈ 32.4 mM) | 50000 (≈ 130 mM) | 1560 (≈ 4.04 mM) | 1560 (≈ 4.04 mM) | 12500 (≈ 32.4 mM) | 88% and 100% | 54 | 100 |  |  |  |  |  |  | 
2 | FCC1CCN(c2c(-c3c(F)cccc3Cl)c(Cl)nc3ncnn23)CC1 [Example 2, 5-chloro-7-(4-fluoromethylpiperid-1-yl)-6-(2-chloro-6-fluorophenyl)-1,2,4-triazolo[1,5a]pyrimidine] | 390 (≈ 0.979 mM) | 3130 (≈ 7.86 mM) | >100000 | >100000 | 780 (≈ 1.96 mM) |  | >100000 |  | 17 | 83 | 3130 (≈ 7.86 mM) | 100 |  |  |  |  | 
3 | Fc1cccc(Cl)c1-c1c(Cl)nc2ncnn2c1N1CCCC(F)C1 (stereo not drawn) [Example 3, 5-chloro-6-(2-chloro-6-fluorophenyl)-7-N-(3-fluoropiperid-1-yl)-[1,2,4]triazolo[1,5-a]pyrimidine] |  | 12500 (≈ 32.5 mM) | 50000 (≈ 130 mM) | >100000 | 6250 (≈ 16.3 mM) | 6250 (≈ 16.3 mM) | 50000 (≈ 130 mM) |  | 0 | 92 |  |  | 6250 (≈ 16.3 mM) |  |  |  | 
4 | Fc1c(F)c(F)c(-c2c(Cl)nc3ncnn3c2N2CCCC(F)C2)c(F)c1F (stereo not drawn) [Example 4, 5-chloro-7-N-(3-fluoropiperid-1-yl)-6-(pentafluorophenyl)-[1,2,4]triazolo[1,5-a]pyrimidine] | 3130 (≈ 7.42 mM) | 12500 (≈ 29.6 mM) | 50000 (≈ 119 mM) | 100000 (≈ 237 mM) | 1560 (≈ 3.7 mM) |  | 6250 (≈ 14.8 mM) |  | 0 | 0 | 12500 (≈ 29.6 mM) |  |  |  |  |  | 
5 | Fc1cccc(Cl)c1-c1c(Cl)nc2ncnn2c1N1CCC(F)(F)CC1 [Example 5, 5-chloro-6-(2-chloro-6-fluorophenyl)-7-N-(4,4-difluoropiperid-1-yl)-[1,2,4]triazolo[1,5-a]pyrimidine] | <50 | 50000 (≈ 124 mM) | 12500 (≈ 31.1 mM) | >100000 | 200 (≈ 0.497 mM) |  | >100000 | 74% and 94% and 84% | 36 | 98 | 3130 (≈ 7.78 mM) |  |  | 10% and 0% |  |  | 
6 | FCC1CCN(c2c(-c3c(F)cc(F)cc3F)c(Cl)nc3ncnn23)CC1 [Example 6, 5-chloro-7-N-(4-fluoromethylpiperid-1-yl)-6-(2,4,6-trifluorophenyl)-[1,2,4]triazolo[1,5-a]pyrimidine] |  |  |  | >100000 | 780 (≈ 1.95 mM) | 3130 (≈ 7.83 mM) |  |  | 63 | 99 |  | 100 | 390 (≈ 0.976 mM) | 100% and 98% | 3130 (≈ 7.83 mM) | >100000 | >100000
